The IC50 is the concentration that gives 50% inhibition.

Square brackets hold non-standard residues; d marks the D form. Peptide text beside a SMILES is read from it. Cit = NC(=O)NCCC[C@H](N)C(=O)O

In test [1] the test system is cultured PBMCs from RA patients. Kind of test: Bead-based multiplex cytokine assay in culture supernatants. It is filed as cell-based, human. Particulars: supernatants of cultured PBMCs, day 5, Luminex panel IL-10, IL-13, IL-17A, IL-17F, TNF-α, IFN-γ. On the procedure:
A bead-based multiplex cytokine assay was custom-designed by Invitrogen for simultaneous detection of IL-10, IL-13, IL-17A, IL-17F, TNF-α, and IFN-γ on a Luminex platform. Supernatants were collected at day 5 and stored at −80°C until used. Supernatants from RA patients were analyzed using the Luminex 100 system according to the manufacturer’s instructions.

For another test, the target named is HLA-DRB1*01:01 (Homo sapiens, UniProt P01903+P01911, A100R/D57E/F55L/F60I/F76Y/I96L/L162R/M171V/P40L/Q125E/R42F/V115G/Y59C). Kind of test: Competition peptide-binding assay, HLA-DRB1*01:01. Particulars: competition with 0.02 μM biotinylated HA306–318, plate-bound HLA-DRB1*01:01, increasing peptide concentrations; read-out: IC50 *01:01. As for the experimental part: (§1) Stepwise binding analysis of 15-mer peptides derived from both native and citrullinated α-enolase to HLA-DRB1*01, *04:01, and *04:04 was performed using the ProImmune Class II Reveal assay (ProImmune, Oxford, UK). Relevant peptides were thereafter synthesized by GenScript (Piscataway, NJ, USA) and used for competition peptide-binding assays. […] Finally, peptide-binding affinity to the three different HLA alleles was assessed in direct binding assays in which N-terminally biotinylated epitopes (GenScript, Piscataway, NJ, USA) were incubated at concentrations from 5 to 0.05 μM with plate-bound relevant HLA-DRB1 molecules in the absence of a competitor peptide ([22]). The inflection point of the binding curve of a known binding epitope was used as a cutoff to separate weakly binding epitopes from background.
We decided to make use of HLA-DRB1*01:01 as a representative model for HLA-DRB1*01.

The target in the next test is HLA-DRB1*04:04 (Homo sapiens, UniProt P01903+P01911, A100R/A169T/F76Y/I96L/K127E/L162R/M171V/N62H/P40V/Q125Y/R42H/S133A/S149N/S66Y/V209L/W38E). Kind of test: Competition peptide-binding assay, HLA-DRB1*04:04. Particulars: competition with 0.02 μM biotinylated GAD65 270–285, plate-bound HLA-DRB1*04:04, increasing peptide concentrations; read-out: IC50 *04:04. On the procedure: as §1, with “background. […]” for “background.”

The target of another test is HLA-DRB1*04:01 (Homo sapiens, UniProt P01903+P01911, A100K/A169T/F76Y/I96L/K127E/L162R/M171V/N62H/P40V/Q125Y/R42H/S133A/S149N/S66Y/V115G/V209L/W38E). Briefly: biochemical.

Procedure for HLA-DRB1*04:01: The HLA-DR binding capacity of the identified peptides was assessed through in vitro competition binding assays in which native and citrullinated candidate epitopes were tested for their capacity to displace an established reference peptide (Figure 2; Table 2).

Consider `CC[C@H](C)[C@H](NC(=O)[C@H](Cc1c[nH]cn1)NC(=O)[C@H](CCC(=O)O)NC(=O)[C@@H](NC(=O)[C@H](C)NC(=O)[C@H](CCCCN)NC(=O)[C@H](CO)NC(=O)[C@@H](NC(=O)CNC(=O)[C@H](CCCCN)NC(=O)CNC(=O)[C@H](CCSC)NC(=O)[C@H](Cc1ccc(O)cc1)NC(=O)[C@@H](N)CCCNC(N)=O)C(C)C)C(C)C)C(=O)N[C@@H](CC(N)=O)C(=O)O` [cit56] (H-[Cit]YMGKGVSKAVEHIN-OH; N-terminus and C-terminus assumed), for which the “cytokine response in supernatants compared to the native peptide form” value in test [1] is reported as “strong responses”. For the same compound, the IC50 at HLA-DRB1*01:01 and at HLA-DRB1*04:04 was above 50 µM each time.
With `CC[C@H](C)[C@H](NC(=O)[C@H](CCCCN)NC(=O)[C@H](CC(C)C)NC(=O)[C@@H](NC(=O)[C@H](CO)NC(=O)[C@@H](N)CCSC)[C@@H](C)CC)C(=O)N[C@@H](Cc1c[nH]cn1)C(=O)N[C@@H](C)C(=O)N[C@@H](CCCNC(=N)N)C(=O)N[C@@H](CCC(=O)O)C(=O)N[C@H](C(=O)N[C@@H](Cc1ccccc1)C(=O)N[C@@H](CC(=O)O)C(=O)N[C@@H](CO)C(=O)N[C@@H](CCCNC(=N)N)C(=O)O)[C@@H](C)CC` [peptide 1] (H-MSILKIHAREIFDSR-OH), the results for the 50% inhibitory concentration (IC50) at HLA-DRB1*04:01, at HLA-DRB1*01:01 and on HLA-DRB1*04:04 were above 50 µM, 3.5 µM and above 50 µM, respectively.
As for `CC(C)C[C@H](NC(=O)CNC(=O)[C@H](CCCCN)NC(=O)[C@H](CO)NC(=O)[C@@H](N)[C@@H](C)O)C(=O)N[C@@H](Cc1ccccc1)C(=O)N[C@@H](CCCNC(=N)N)C(=O)N[C@@H](C)C(=O)N[C@@H](C)C(=O)N[C@H](C(=O)N1CCC[C@H]1C(=O)N[C@@H](CO)C(=O)NCC(=O)N[C@@H](C)C(=O)N[C@@H](CO)C(=O)O)C(C)C` [peptide 26] (H-TSKGLFRAAVPSGAS-OH), the half-maximal inhibitory concentration (IC50) against HLA-DRB1*04:01 is 4 µM; at HLA-DRB1*01:01, 1.4 µM; at HLA-DRB1*04:04, 0.5 µM.
Turning to `CC(C)C[C@H](NC(=O)[C@@H]1CCCN1C(=O)[C@H](CC(N)=O)NC(=O)[C@H](CCCNC(=N)N)NC(=O)[C@H](Cc1ccccc1)NC(=O)[C@H](CC(N)=O)NC(=O)[C@H](CCCNC(=N)N)NC(=O)CNC(=O)[C@H](C)NC(=O)[C@H](Cc1ccccc1)NC(=O)[C@H](CCCCN)NC(=O)[C@H](C)NC(=O)[C@@H](N)CCCCN)C(=O)N[C@@H](C)C(=O)N[C@@H](CCCCN)C(=O)O` [peptide 420] (H-KAKFAGRNFRNPLAK-OH), the IC50 was above 50 µM against HLA-DRB1*04:01, above 50 µM on HLA-DRB1*01:01 and 25 µM on HLA-DRB1*04:04.

The values above are taken from paper PMC5108039, “Functional and Structural Characterization of a Novel HLA-DRB1*04:01-Restricted α-Enolase T Cell Epitope in Rheumatoid Arthritis” (Frontiers in Immunology, 2016).
